Assay results published in patent US20120245193A1, “PER[…] μ OPIOID ANTAGONISTS” (Alkermes, Inc., priority 2011, published 2012).

What was measured:
[1] = test system: patients diagnosed with opioid-induced bowel dysfunction (OBD); experiment: Multicenter, multi-dose study in patients with opioid-induced bowel dysfunction; format: in vivo, human
Experimental: In this multicenter, multi-dose study, 87 patients diagnosed with opioid-induced bowel dysfunction (OBD) during treatment with opioids for chronic, non-cancer pain were randomized to receive escalating doses of Compound-1 (1-100 mg), or placebo with a pre-defined dose escalation schedule. […] (FIG. 8).
The mean change from baseline in CSBMs per week for patients receiving 100 mg Compound-1 was 3.6 versus 0.8 in the placebo group (p=0.006), or a net increase of 2.8 CSBMs over placebo.

Male Swiss-Webster mice = experiment: PGE2 test of gut motility (inhibition of morphine's blockade of PGE2-induced diarrhea); format: in vivo
Experimental: A rodent model of gut motility model (Russell, et al., 1982; Eur. J. Pharm., 78: 255-61) was used to evaluate the bioavailability and efficacy of Compound-1 in […]. The PGE2 test of gut motility evaluates the inhibition of morphine's side effects. PGE2 (a prostaglandin) induces diarrhea in mice within 15 minutes of an intraperitoneal injection (0.1 mg/kg). Morphine (1 mg/kg, IP) blocks this effect. Peripherally-acting opioid antagonists inhibit morphine's blockade of PGE2-induced diarrhea. Male Swiss-Webster mice (n=10/group) were administered Compound-1 or a reference compound 15 minutes (IP or PO) prior to morphine and placed in a Plexiglas pie cage. PGE2 was administered 30 minutes after morphine. Observations of diarrhea were made 15 minutes after PGE2 administration. Duration of action was tested by adjusting the time between Compound-1 and morphine administration. FIGS. 2 and 3 show the effectiveness of reference compound methylnaltrexone (MNTX) and Compounds 1-4 to inhibit opioid-induced delay in gut motility by oral and IP administration.
(NTX represents naltrexone).

In the case of `C[N+]1(CC2CC2)CC[C@]23CC(=O)CC[C@@]2(O)[C@H]1Cc1ccc(C(N)=O)c(O)c13` (stereo partly drawn) [Compound-1], the “change from baseline in number of average spontaneous bowel movements (SBMs) in comparison to placebo” value ([1]; 30 mg dose) is reported as “statistically significant increase”, the “net increase of CSBMs over placebo” value ([1]; 100 mg) is reported as 2.8 CSBMs and the “average number of complete spontaneous bowel movements (CSBMs) per week from baseline as compared to placebo” value ([1]; 100 mg dose) is reported as “clinically meaningful and statistically significant increase”. For the same molecule, the “change from baseline in number of average spontaneous bowel movements (SBMs) in comparison to placebo” value ([1]; 100 mg dose) was “statistically significant increase”, the “net increase of SBMs over placebo” value ([1]; 100 mg once-daily) was 3.9 SBMs and the “mean change from baseline in the average number of SBMs per week” value ([1]; 100 mg once-daily, placebo 0.7, p=0.003) was 4.6 SBMs per week. For the same molecule, the “mean change from baseline in CSBMs per week” value ([1]; 100 mg, placebo 0.8, p=0.006) was 3.6 CSBMs per week, the opioid use ([1]; escalating doses 1-100 mg) was “no increase in opioid use” and the “reversal of analgesia as measured by change in Numerical Pain Rating Scale (NPRS) scores” value ([1]; escalating doses 1-100 mg) was “no reversal of analgesia”. For the same molecule, the “duration of action compared with MNTX” value (Male Swiss-Webster mice; minimal effective PO dose of Compound-1 vs minimal effective IP dose of MNTX, FIG. 7) was “longer duration of action than MNTX”, the “dose relative to methylnaltrexone at which morphine's effects are blocked” value (Male Swiss-Webster mice; oral administration, FIG. 6) was 3 fold lower and the “duration of blocking morphine's effects” value (Male Swiss-Webster mice; oral administration, FIG. 6, compared with methylnaltrexone) was “up to 4 hours”.
